Peptide text beside a SMILES is read from it. * marks the point of attachment. Palmitoyl = CCCCCCCCCCCCCCCC(=O)*

The subject of the test is HIV-1 ENV-mediated fusion of Jurkat HXBc2 (effector) with Jurkat E6-1 (target) cells. As to the kind of experiment: Cell-cell fusion inhibition assay (DiI/DiD lipophilic probes, flow cytometry). The settings on record: Jurkat E6-1 + Jurkat HXBc2 1:1, co-incubated 6 h, eight peptide concentrations, FACS, Hill-type fit; at least four independent experiments, ± standard deviation. The test is classed as cell-based. As for the experimental part:
The protocol utilizing Jurkat E6-1 and Jurkat HXBc2 cells for a cell-cell fusion assay was previously described. In short, Jurkat E6-1 and Jurkat HXBc2 cells were labeled with DiI and DiD lipophilic fluorescent probes, respectively. The two cell populations were co-incubated, in a ratio of 1∶1, for 6 h in the presence of eight different concentrations of the inhibitory peptides. Prior to measurements the cells were washed, spinned, dissolved in PBS, and put on ice. Cells co-incubated without the presence of peptides served as an optimal fusion reference. Unlabeled cells that were handled similarly served as an intrinsic fluorescence control. Cells labeled separately with DiI or DiD were used to adjust the optimal separation of fluorescent signals. Jurkat HXBc2 cells labeled with DiI were co-incubated with Jurkat HXBc2 cells labeled with DiD for a fusion background that was subtracted from the measurements of the experiment. The following alterations were applied to the original protocol: (i) 5 µL of a 1 mg/mL DiI or DiD solution in dimethylsulfoxide (DMSO) was added to 1 mL of 4×10^6 cells/mL Jurkat E6-1 or Jurkat HXBc2 cells, respectively. (ii) For each data point 150,000 events were collected. Measurements were performed on a FACSort machine, upgraded to a FACSCalibur cell analyzer (Becton Dickinson). […] For the fitting, we uploaded the X and Y values of the raw data (after subtracting the background) into a nonlinear least squares regression (curve fitter) program that provided the IC50 value (A of the equation), as well as the c value.
(In general: In flow cytometry, cells or beads pass a laser one at a time.)
For orientation: IC50 means the concentration needed to halve the response being measured. In the case of `CCCCCCCCCCCCCCCC(=O)N[C@@H](CO)C(=O)NCC(=O)N[C@H](C(=O)N[C@@H](CC(=O)O)C(=O)N[C@@H](CCC(N)=O)C(=O)N[C@@H](CCC(=O)O)C(=O)N[C@@H](CCC(N)=O)C(=O)N[C@@H](CC(N)=O)C(=O)N[C@@H](CC(N)=O)C(=O)N[C@@H](CC(C)C)C(=O)N[C@H](C(=O)N[C@@H](CCCNC(=N)N)C(=O)N[C@@H](CC(C)C)C(=O)N[C@H](C(=O)N[C@@H](CCC(=O)O)C(=O)N[C@@H](C)C(=O)N[C@@H](CCC(N)=O)C(=O)N[C@H](C(=O)N[C@@H](Cc1c[nH]cn1)C(=O)N[C@@H](CCC(=O)O)C(=O)N[C@@H](CC(C)C)C(=O)N[C@@H](CCC(N)=O)C(=O)N[C@@H](CC(C)C)C(=O)N[C@H](C(=O)N[C@@H](CCC(N)=O)C(=O)N[C@@H](Cc1c[nH]c2ccccc12)C(=O)N[C@@H](CCCCN)C(=O)N[C@H](C(=O)N[C@@H](CCCCN)C(=O)N[C@@H](CCC(N)=O)C(=O)N[C@@H](CC(C)C)C(=O)N[C@@H](CC(C)C)C(=O)N[C@@H](C)C(=O)N[C@@H](CCCNC(=N)N)C(=O)N[C@H](C(=O)N[C@@H](CC(C)C)C(=O)N[C@@H](CCCCN)C(N)=O)[C@@H](C)CC)[C@@H](C)CC)[C@@H](C)O)[C@@H](C)CC)[C@@H](C)CC)[C@@H](C)O)[C@@H](C)CC` [C16-N36 MUTe,g] (Palmitoyl-SGIDQEQNNLTRLIEAQIHELQLTQWKIKQLLARILK-NH2), the IC50 turned out to be 162 ± 4 nM.

Consider `CCCCCCCCCCCCCCCC(=O)NCCCC[C@H](NC(=O)[C@H](CC(C)C)NC(=O)[C@@H](NC(=O)[C@H](CCCNC(=N)N)NC(=O)[C@H](C)NC(=O)[C@H](CC(C)C)NC(=O)[C@H](CC(C)C)NC(=O)[C@H](CCC(N)=O)NC(=O)[C@H](CCCCN)NC(=O)[C@@H](NC(=O)[C@H](CCCCN)NC(=O)[C@H](Cc1c[nH]c2ccccc12)NC(=O)[C@H](CCC(N)=O)NC(=O)[C@@H](NC(=O)[C@H](CC(C)C)NC(=O)[C@H](CCC(N)=O)NC(=O)[C@H](CC(C)C)NC(=O)[C@H](CCC(=O)O)NC(=O)[C@H](Cc1c[nH]cn1)NC(=O)[C@@H](NC(=O)[C@H](CCC(N)=O)NC(=O)[C@H](C)NC(=O)[C@H](CCC(=O)O)NC(=O)[C@@H](NC(=O)[C@H](CC(C)C)NC(=O)[C@H](CCCNC(=N)N)NC(=O)[C@@H](NC(=O)[C@H](CC(C)C)NC(=O)[C@H](CC(N)=O)NC(=O)[C@H](CC(N)=O)NC(=O)[C@H](CCC(N)=O)NC(=O)[C@H](CCC(=O)O)NC(=O)[C@H](CCC(N)=O)NC(=O)[C@H](CC(=O)O)NC(=O)[C@@H](NC(=O)CNC(=O)[C@@H](N)CO)[C@@H](C)CC)[C@@H](C)O)[C@@H](C)CC)[C@@H](C)CC)[C@@H](C)O)[C@@H](C)CC)[C@@H](C)CC)C(N)=O` [N36 MUTe,g-C16] (H-SGIDQEQNNLTRLIEAQIHELQLTQWKIKQLLARILK(Palmitoyl)-NH2), for which the IC50 is 8.8 ± 4 nM.

On to “H-SGIDQEQNNLTRLIEAQIHELQLTQWKIKQLLARILK-NH2 [N36 MUTe,g, reference compound]”, for which the IC50 amounted to 936 ± 36 nM.

(Values after PMC2699469 (PLoS Pathogens, 2009).)
